A short description of the data set: Human HepG2 cell viability assay in 384 well format. It counts as toxicity, cell-based. Also on record: dose 125 nL, time 70.5 hour; concentration not given beside the values. The conditions noted are these: HepG2 cells, read-out: Inhibition.

This is an account of results in ChEMBL document CHEMBL3507680, “University of Dundee, Gates Library screen for HepG2 cell viability”.

Turning to `COC1CCC(N(C)c2ccnc(N(C)C)n2)CC1` (centres undefined), the cytotoxicity at 70.5 h was -7.23%.
As for `N#Cc1c(F)cccc1N1CCN(C(=O)Nc2nncs2)CC1`, the cytotoxicity at 70.5 h was determined as 11.5%.
`O=C(Nc1ccnn1Cc1ccccc1Cl)C1CCS(=O)(=O)C1` (centres undefined): the cytotoxicity at 70.5 h is -17%.
In the case of `COc1ccc(CNCCn2c(C)nc3ccccc32)cc1O`, the cytotoxicity at 70.5 h was -8.82%.
As to `Cc1nc2ccccc2n1CCNCc1cccc(C#N)c1`, the cytotoxicity at 70.5 h was -14.8%.
As for `O=C(CN1CCc2sccc2C1)Nc1nccs1`, the cytotoxicity at 70.5 h is -18.3%.
With `N#Cc1c(F)cccc1N1CCC(C(=O)Nc2nccs2)CC1` the figure was -17.6%; with `CN(CC(=O)NCCCOc1ccc(F)cc1)c1ccc(C#N)cn1`, -19%.
For the compound `Cc1ccc(OCC(C)NC(=O)CN(C)c2ccc(C#N)cn2)cc1` (centres undefined), the cytotoxicity at 70.5 h was -3.51%.
In the case of `CC(C)(C)NC(=O)NC(=O)CNc1c(F)cccc1N1CCCC1`, the cytotoxicity at 70.5 h is -5.38%.
To `O=C1CCC(C(=O)Nc2cnn(-c3ccccc3Cl)c2)N1` (centres undefined) belongs -9.74%; to `CCNC(=O)N1CCc2ccc(NC(=O)NCCOCC)cc21`, 1.97%; to `N#CC1(NC(=O)c2ccc(-c3nc(C4CC4)n[nH]3)cc2)CC1`, -12.9%.
To `CCNC(=O)N1CCc2ccc(NC(=O)NCc3ccsc3)cc21` belongs 9.35%; to `CNC(=O)c1cccnc1N1CCC(OCc2ccccc2)CC1`, -19.8%; to `CNC(=O)c1ccc2c(c1O)OC(C)(C)C2`, -4.08%.
Consider `CC1(CNC(=O)NCc2ccsc2)CCCS1` (centres undefined), for which the cytotoxicity at 70.5 h was -8.93%.
Turning to `CNC(=O)c1cccnc1N1CCC(Oc2ccc(F)cc2)CC1`, the cytotoxicity at 70.5 h was -14.2%.
With `CC(C)(C)C(O)CN1CCN(CC(=O)NC(C2CC2)C2CC2)CC1` (centres undefined) the figure was 2.37%.
`c1csc(CNc2ccccc2Cn2cncn2)c1`: the cytotoxicity at 70.5 h stood at 7.58%.
With `CN(C(=O)c1cccc(OCC(F)F)n1)c1ccc2c(c1)CCO2` the figure was 21.4%; with `N#CC1C(=O)Nc2c(cnn2C2CCCC2)C12CCCC2` (centres undefined), -2.82%; with `Cc1c(C(=O)NCCC(=O)N2CCCC2)oc2c(F)cccc12`, -6.53%.
For `CC(Cc1ccco1)NC(=O)CSc1nnc[nH]1` (centres undefined), the cytotoxicity at 70.5 h is -9.49%.
Take `CCN(Cc1cccc(F)c1)c1ccc2nnnn2n1`: the cytotoxicity at 70.5 h is -1.32%.
On to `Cc1ccc(C)c2c(C)c(C(=O)NCCC(=O)N3CCOCC3)oc12`, for which the cytotoxicity at 70.5 h is -10.6%.
Turning to `CCCN(CCc1cccc(F)c1)c1ccc2nnnn2n1`, the cytotoxicity at 70.5 h is -22.2%.
With `Cc1ccc(NC(=O)CCC2CC2)cc1N1CCOC1=O`, the cytotoxicity at 70.5 h was -10.8%.
As to `CCc1nncn1CCNC(=O)Nc1ccc2c(c1)CCCO2`, the cytotoxicity at 70.5 h was 1.85%.
Turning to `CCc1nncn1CCNC(=O)Nc1ccc(OC)c(C)c1`, the cytotoxicity at 70.5 h is -7.19%.
Turning to `CCCn1ccc2cc(NC(=O)NCCn3cnnc3CC)ccc21`, the cytotoxicity at 70.5 h is -9.53%.
To `CCN(C)CC1CCN(C(=O)Nc2ccc(-c3csnn3)cc2)C1` (centres undefined) belongs -5.78%; to `CCc1nc2n(n1)CCCC2NC(=O)Nc1cc(OC)ccc1C` (centres undefined), 3.05%.
Consider `O=S(=O)(CC1CCCCC1)NCc1ccnc(O)c1`, for which the cytotoxicity at 70.5 h is -7.43%.
On to `O=C1NCCO[C@H]2CN(C(=O)Cc3csc4ccccc34)CC[C@@H]12`, for which the cytotoxicity at 70.5 h is -8.16%.
`O=C(NCC1Cn2nnc(-c3ccsc3)c2CO1)N1CCCC1` (centres undefined): the cytotoxicity at 70.5 h is -7.85%.
To `O=C(Nc1cccnc1)[C@H]1CN(Cc2cccs2)C[C@H]2OCC[C@@H]12` belongs -10.8%; to `O=C1NCCO[C@H]2CN(C(=O)c3cccs3)CC[C@@H]12`, 20.1%.
Consider `O=C1NCCO[C@H]2CN(C(=O)Cc3ccco3)CC[C@@H]12`, for which the cytotoxicity at 70.5 h was -5.72%.
With `Cc1csc(CN2C[C@@H]3CN(CC4CCOCC4)CCO[C@@H]3C2)n1` the figure was -6.62%; with `Cc1csc(CN2C[C@@H]3CN(C)CCO[C@@H]3C2)n1`, -3.79%.
In the case of `Cc1cnc(C(=O)N2C[C@H](N3CCOCC3)[C@@H]3OCCC[C@@H]32)cn1`, the cytotoxicity at 70.5 h is -13.1%.
On to `Cc1ccc(C(=O)N2C[C@@H](N3CCN(C)CC3)[C@H]3OCCC[C@H]32)cn1`, for which the cytotoxicity at 70.5 h was -11.9%.
As for `Cc1nnc([C@@]23CCO[C@@H]2CCN(Cc2cccc4ccccc24)C3)o1`, the cytotoxicity at 70.5 h was -6.43%.
On to `CCS(=O)(=O)N1CCC2(CCN(C(=O)c3cccs3)CC2)CC1`, for which the cytotoxicity at 70.5 h was -4.52%.
To `Cc1nnc([C@@]23CCO[C@@H]2CCN(Cc2scnc2C)C3)o1` belongs -10.2%.
Turning to `Cc1ncccc1NC(=O)c1nc2c(n1C)CCN(C(=O)C1CC1)C2`, the cytotoxicity at 70.5 h is -8.28%.
In the case of `COCc1cnc2n1CCN(C(=O)c1cc3cc(Cl)ccc3o1)C2C` (centres undefined), the cytotoxicity at 70.5 h was 18.3%.
To `CS(=O)(=O)N1C[C@@H]2COC[C@]2(C(=O)NCCc2cccs2)C1` belongs -7.21%.
Take `CCOC1COC2(CCN(S(=O)(=O)c3ccc(F)cc3)CC2)C1` (centres undefined): the cytotoxicity at 70.5 h is -12.9%.
On to `Cc1cnc(N2CCC3(C2)CN(S(=O)(=O)C2CC2)C3)nc1`, for which the cytotoxicity at 70.5 h is -8.82%.
`CN(Cc1cccnc1)C[C@H]1OC[C@@H]2CCN(c3ncccn3)C[C@@H]21`: the cytotoxicity at 70.5 h is -0.858%.
As to `Cc1noc(C)c1CN1CCn2c(COC(C)C)nnc2C1`, the cytotoxicity at 70.5 h was -10.8%.
With `COC[C@@]12CCO[C@@H]1CCN(C(=O)C1CCSCC1)C2`, the cytotoxicity at 70.5 h is -5.18%.
For the compound `O=C([C@@H]1COC[C@H]2CN(C3CCCCC3)C[C@H]21)N1CCOCC1`, the cytotoxicity at 70.5 h was -9.47%.
`O=C([C@H]1COC[C@H]2CN(C3CCCC3)C[C@H]21)N1CCOCC1`: the cytotoxicity at 70.5 h is -9.13%.
Regarding `COC[C@@]12CCO[C@@H]1CCN(C(=O)C1CC(F)(F)C1)C2`, the cytotoxicity at 70.5 h is -11.5%.
With `COC[C@@]12CCO[C@@H]1CCN(C(=O)C1CCOCC1)C2`, the cytotoxicity at 70.5 h was -11.6%.
With `CCN(C(=O)c1ccc2nnc(C3CCN(C(C)=O)C3)n2c1)C(C)C` (centres undefined) the figure was -12.3%.
On to `CCN(C(=O)c1ccc2nnc(C3CCN(S(C)(=O)=O)C3)n2c1)C(C)C` (centres undefined), for which the cytotoxicity at 70.5 h is -9.62%.
With `CC(=O)N1CCC(c2nnc3ccc(C(=O)NCC(C)C)cn23)C1` (centres undefined), the cytotoxicity at 70.5 h was -12.8%.
As to `O=C(NCC1CCCCC1)N1C[C@H]2C[C@H](C(=O)N3CCOCC3)[C@@H](C1)O2`, the cytotoxicity at 70.5 h was 24.6%.
To `Cn1ccnc1C(=O)NC[C@@H]1OC[C@H]2CN(S(C)(=O)=O)CC[C@H]21` belongs -5.19%; to `Cn1cnc2c(-c3ccccc3)nc(C3CCNCC3)cc21`, 13.6%.
On to `CC(C)n1cnc2c(-c3cccnc3)nc(C3CCNCC3)cc21`, for which the cytotoxicity at 70.5 h was 12%.
With `O=C(NC1CC(F)(F)C1)[C@]12COC[C@H]1CN(Cc1ccccc1)C2`, the cytotoxicity at 70.5 h is -9.36%.
`Cc1ncsc1CN1C[C@@H]2COC[C@]2(C(=O)NC2CC(F)(F)C2)C1`: the cytotoxicity at 70.5 h was -4.72%.
Turning to `O=C(O)c1c(-c2cncnc2)ncc2c1CCN(CC1CCOC1)C2` (centres undefined), the cytotoxicity at 70.5 h was -4.73%.
Regarding `Cn1ccnc1C(=O)N1CCC2(CCN2Cc2ccc(F)cc2)C1` (centres undefined), the cytotoxicity at 70.5 h is -3.38%.
Consider `CNC(=O)c1cc2c(nc1N(C)C)CCN(c1ncccn1)CC2`, for which the cytotoxicity at 70.5 h was -12%.
`Cc1cc(C(=O)N2CCC3(CC2)C(=O)N(C)CCN3CC(C)C)c(C)o1`: the cytotoxicity at 70.5 h was -10.1%.
As to `CCOC[C@]12COC[C@H]1CN(Cc1ccc3c(c1)OCO3)C2`, the cytotoxicity at 70.5 h was -6.35%.
Consider `CN1CCN(S(=O)(=O)c2cccc(F)c2)Cc2cccnc21`, for which the cytotoxicity at 70.5 h is -2.06%.
In the case of `COCC(=O)NC[C@]12COC[C@H]1CN(Cc1ccc3c(c1)OCO3)C2`, the cytotoxicity at 70.5 h is -0.957%.
For the compound `CS(=O)(=O)NC[C@]12COC[C@H]1CN(Cc1ccc3c(c1)OCO3)C2`, the cytotoxicity at 70.5 h is 5.12%.
As to `COC[C@]12COC[C@H]1CN(Cc1ccc3c(c1)OCO3)C2`, the cytotoxicity at 70.5 h is -6.87%.
Regarding `CCN1CC2(CCOCC2)c2cc(NS(=O)(=O)CC)ccc21`, the cytotoxicity at 70.5 h is -2.27%.
Turning to `CCOC1CC2(CCN(C(=O)Cc3ccccn3)CC2)C1`, the cytotoxicity at 70.5 h was determined as 18.1%.
Take `Cc1nc(CO[C@H]2CN(C(=O)c3cnoc3C)[C@@H]3COC[C@H]23)cs1`: the cytotoxicity at 70.5 h is -3.09%.
To `c1ccc(NC[C@@H]2CCC[C@@H]3CN(Cc4cc[nH]n4)C[C@@H]32)nc1` belongs -12.4%; to `CN(C)C1COC2(CCN(S(=O)(=O)c3ccc(F)cc3)CC2)C1` (centres undefined), -13.4%.
As for `c1ccc(NC[C@@H]2CCC[C@@H]3CN(Cc4nccs4)C[C@@H]32)nc1`, the cytotoxicity at 70.5 h is -0.385%.
As for `Cc1nnn2c1COCC(CNCc1nccs1)C2` (centres undefined), the cytotoxicity at 70.5 h is -10.3%.
As for `O=C(NCCc1cccs1)[C@]12COC[C@H]1CN(C1CCOCC1)C2`, the cytotoxicity at 70.5 h was -6.34%.
On to `Cn1cncc1C(=O)N1C[C@@H]2CCN(c3cnccn3)C[C@@H]2C1`, for which the cytotoxicity at 70.5 h is -11.9%.
In the case of `Cn1ccnc1C(=O)N1C[C@@H]2CCN(c3cnccn3)C[C@@H]2C1`, the cytotoxicity at 70.5 h is -7.28%.
As for `CC(C)CN1CCc2[nH]nc(C(=O)N3CCCC3)c2C1`, the cytotoxicity at 70.5 h was determined as 28.7%.
With `O=C(NC1CC(F)(F)C1)[C@]12COC[C@H]1CN(Cc1cccnc1)C2` the figure was -10.6%; with `COc1ncccc1CNC1CCc2c(ccc(=O)n2C)C1` (centres undefined), -1.32%; with `O=C(O)c1c(-c2ccncc2)ncc2c1CCN(CC1CCOC1)C2` (centres undefined), -4.36%.
Consider `Cc1cccc(CN2CCC3(CCCN(Cc4cnn(C)c4)C3)C2)n1` (centres undefined), for which the cytotoxicity at 70.5 h is -14%.
To `COc1ncccc1CNC1CCc2c(ccc(=O)n2CC2CC2)C1` (centres undefined) belongs -8.76%.
For the compound `c1ccc(CN2CCCC3(CCN(CC4CCCO4)CC3)C2)nc1` (centres undefined), the cytotoxicity at 70.5 h is -9.93%.
For the compound `Cc1ccc(CN2CC[C@H]3CO[C@H](CN4CCCC4)[C@H]3C2)o1`, the cytotoxicity at 70.5 h was -8.76%.
